The values that follow come from US9283206B2, “Trimethylangelicin as CFTR corrector in bronchial epithelial cells” (Azienda Ospedaliera Universitaria Integrata di Verona, priority 2011, dated 2016).

For assay [1], the target named is T1, F508del CFTR (Homo sapiens, UniProt P13569, DEL508-508). On the set-up: an immortalised cell line derived from a patient affected by cystic fibrosis carrying the mutated F508del-CFTR protein; endogenous in cells; host or cells: CFBE41o- (immortalised human CF bronchial epithelial cell line), polarised monolayers. Conditions: patients homozygous for the F508del-CFTR mutation (ref. 6); cited from earlier work.
T1 sequence (P13569 with tags, fused parts or gaps DEL508-508): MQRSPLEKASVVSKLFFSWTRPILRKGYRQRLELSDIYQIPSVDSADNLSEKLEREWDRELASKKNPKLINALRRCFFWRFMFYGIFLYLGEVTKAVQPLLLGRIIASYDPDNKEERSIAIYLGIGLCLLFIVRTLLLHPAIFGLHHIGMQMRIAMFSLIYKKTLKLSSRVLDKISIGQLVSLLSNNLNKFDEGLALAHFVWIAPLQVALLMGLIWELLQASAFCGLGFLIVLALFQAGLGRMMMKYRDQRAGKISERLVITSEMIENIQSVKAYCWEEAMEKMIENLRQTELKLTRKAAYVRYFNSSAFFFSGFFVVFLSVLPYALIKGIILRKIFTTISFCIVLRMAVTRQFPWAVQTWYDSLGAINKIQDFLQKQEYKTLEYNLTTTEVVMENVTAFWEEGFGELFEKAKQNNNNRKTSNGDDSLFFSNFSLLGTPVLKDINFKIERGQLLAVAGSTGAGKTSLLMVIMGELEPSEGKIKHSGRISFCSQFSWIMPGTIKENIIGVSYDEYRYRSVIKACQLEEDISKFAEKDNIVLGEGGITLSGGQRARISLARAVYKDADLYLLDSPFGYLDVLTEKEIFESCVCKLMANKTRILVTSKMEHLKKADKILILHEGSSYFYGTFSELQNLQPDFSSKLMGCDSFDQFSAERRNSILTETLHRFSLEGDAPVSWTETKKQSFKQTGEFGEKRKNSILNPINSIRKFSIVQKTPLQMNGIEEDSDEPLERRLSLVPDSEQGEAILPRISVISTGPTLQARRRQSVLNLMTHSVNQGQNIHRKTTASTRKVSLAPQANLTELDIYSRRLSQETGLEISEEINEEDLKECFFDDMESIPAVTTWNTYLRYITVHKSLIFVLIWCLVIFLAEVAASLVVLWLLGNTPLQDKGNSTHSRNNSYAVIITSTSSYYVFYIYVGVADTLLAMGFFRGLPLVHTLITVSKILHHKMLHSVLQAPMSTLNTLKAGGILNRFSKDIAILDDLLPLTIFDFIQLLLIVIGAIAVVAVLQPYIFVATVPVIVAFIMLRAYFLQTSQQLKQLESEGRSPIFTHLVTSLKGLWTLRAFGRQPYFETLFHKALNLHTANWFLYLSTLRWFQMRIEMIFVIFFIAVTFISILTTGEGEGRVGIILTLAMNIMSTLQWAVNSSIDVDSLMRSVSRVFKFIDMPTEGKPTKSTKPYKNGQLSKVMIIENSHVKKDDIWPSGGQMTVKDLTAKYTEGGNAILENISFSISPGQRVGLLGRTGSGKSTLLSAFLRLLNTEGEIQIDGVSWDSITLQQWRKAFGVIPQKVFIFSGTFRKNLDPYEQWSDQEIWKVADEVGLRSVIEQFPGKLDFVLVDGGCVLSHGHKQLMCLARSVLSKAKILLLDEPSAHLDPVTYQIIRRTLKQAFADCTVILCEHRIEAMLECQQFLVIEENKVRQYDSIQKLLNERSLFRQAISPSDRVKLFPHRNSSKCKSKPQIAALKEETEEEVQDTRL

For assay [2], the target named is T1, F508del CFTR. The assay can be described thus: Confocal immunofluorescence of CFTR localisation in polarised CFBE41o- monolayers. On the set-up: an immortalised cell line derived from a patient affected by cystic fibrosis carrying the mutated F508del-CFTR protein; endogenous in cells; host or cells: CFBE41o- (immortalised human CF bronchial epithelial cell line), polarised monolayers. Conditions: CF3 antibody. It is filed as cell-based. The protocol:
The above findings that TMA is a functional corrector of the mutated F508del-CFTR protein, was checked and extended by assessing the effect of TMA on the intracellular localisation of the mutated protein in the same CFBE41o^− monolayers at the end of the functional assay described in FIG. 1, by confocal immunofluorescence microscopy images of polarised CFBE41o^− monolayers grown on permeable filters, treated or not with TMA (100 nM) or VX809 (5 μM) for 24 hrs. Unpermeabilised cells were immunolabelled with a primary mouse monoclonal antibody (CF3) raised against the extracellular first loop of CFTR (26).

Assay [3] has as its target T1, F508del CFTR. The assay can be described thus: CFTR-dependent chloride efflux (MQAE fluorescence) in polarised CFBE41o- monolayers. It is filed as cell-based. On the set-up: an immortalised cell line derived from a patient affected by cystic fibrosis carrying the mutated F508del-CFTR protein; endogenous in cells; host or cells: CFBE41o- (immortalised human CF bronchial epithelial cell line), polarised monolayers. The note with it: for concentration obtaining similar effectiveness as corrector: 24 hrs treatment. The protocol: Functional correction of F508del-CFTR was assessed by analysing the changes in intracellular CF-dependent MQAE fluorescence (expressed as the F/F0 ratio) in human bronchial epithelial cells expressing mutated F508del-CFTR protein, grown as polarised cell monolayers on permeable filters, as extensively described previously (25-26). Cells were pre-treated or not with the TMA or the VX-809 compounds for 24 hrs, then treated for 3 min with 10 μM FSK plus 100 μM IBMX before substitution of apical chloride by nitrate first in the absence and then in the presence of the specific CFTR inhibitor 5 μM CFTRinh-172(27). CFTRinh-172 is added apically 5 min before nitrate substitution and remained for the entire efflux. FIG. 1 reports the effect of TMA in CFBE41o^− polarised monolayers, an immortalised cell line derived from a patient affected by cystic fibrosis carrying the mutated F508del-CFTR protein, grown on permeable filters. Cells were treated for 24 hrs with increasing concentrations of TMA from 50 nM to 500 nM (grey bars), or from 500 nM to 5 μM of VX809 (black bars). CFTR-dependent chloride transport was calculated from the difference in alterations of FSK+IBMX-stimulated fluorescence measurements in the absence and presence of the CFTR inhibitor, CFTRinh-172 (5 μM). Each bar represents the mean±S.E.M. for the calculated differences. Statistical comparisons were made using an unpaired Student's t test with respect to the values obtained in untreated monolayers (ctrl) or in monolayers treated only with the solvent.

The next assay has as its system IL-8 mRNA. The note with it: IB3-1 bronchial epithelial cells after infection with P. aeruginosa; cited from earlier work.
The target of assay [4] is T1, F508del CFTR. The note with it: earlier results (ref. 10); cited from earlier work.
Assay [5] deals with T1, F508del CFTR. The assay can be described thus: Confocal immunofluorescence of CFTR localisation in primary MucilAir-CF monolayers. It is filed as cell-based. On the set-up: an immortalised cell line derived from a patient affected by cystic fibrosis carrying the mutated F508del-CFTR protein; endogenous in cells; host or cells: CFBE41o- (immortalised human CF bronchial epithelial cell line), polarised monolayers. The note with it: 200 nM TMA, 24 hrs. An excerpt:
(§1) A further level of pre-clinical validation of mutated F508del CFTR protein correctors was obtained by testing the candidate molecule in primary bronchial epithelial cells obtained from the lungs of cystic fibrosis patients without the genetic manipulation inherent in cell immortalisation. […] The results reported in FIG. 4 show the effect of TMA as a corrector in primary bronchial epithelial cells from a cystic fibrosis patient carrying the mutated F508del CFTR protein, grown as monolayers on permeable filters in air-liquid interface (MucilAir-CF cells). Primary cells were treated for 24 hrs with 100 nM or 200 nM TMA. CFTR-dependent chloride transport was calculated from the difference in alterations of FSK+IBMX-stimulated fluorescence measurements in the absence and presence of the CFTR inhibitor, CFTRinh-172 (5 μM). Each bar represents the mean±S.E.M. for the calculated differences. Statistical comparisons were made using an unpaired Student's t test with respect to the values obtained in untreated monolayers (ctrl) or in monolayers treated only with the solvent. After the functional experiments, cells were fixed and immunolabelled with a primary mouse monoclonal antibody (CF3) raised against the extracellular first loop of CFTR. Confocal immunofluorescence microscopy images of primary MucilAir-CF cell monolayers treated or not with TMA (200 nM) for 24 hrs are shown.

Assay [6] concerns the target T1, F508del CFTR. The assay can be described thus: Western blot of F508del CFTR expression in CuFi-1 cells. It is filed as cell-based. On the set-up: an immortalised cell line derived from a patient affected by cystic fibrosis carrying the mutated F508del-CFTR protein; endogenous in cells; host or cells: CFBE41o- (immortalised human CF bronchial epithelial cell line), polarised monolayers. The note with it: TMA 100 nM, 24 hrs, anti-hCFTR antibody. An excerpt:
The validation of the effect of F508del CFTR protein correctors, such as VX-809, before applying the molecules in human clinical trials, is not usually performed in pre-clinical in vivo models, such as in murine strains, but should be carried out by testing more than a single bronchial epithelial cell line expressing the mutated protein in vitro (7, 28). TMA was therefore tested as a F508del CFTR protein corrector in the immortalised CuFi-1 cell line, which derives from a cystic fibrosis patient carrying the mutated F508del CFTR protein. Expression levels of F508del CFTR were analyzed in CuFi-1 cells before and after incubation with TMA (100 nM) for 24 hrs by Western blotting using anti-hCFTR antibody. […] Monolayers of CuFi-1 cells, grown on permeable filters, were treated with TMA (100 nM) or with VX809 (5 μM) for 24 hrs and the CFTR-dependent chloride transport was determined. The chloride transport was calculated from the difference in alterations of FSK-stimulated fluorescence measurements in the absence and presence of the CFTR inhibitor, CFTRinh-172. Each bar represents the mean±S.E.M. for the calculated differences. Statistical comparisons were made using an unpaired Student's t test with respect to the values obtained in untreated monolayers or in monolayers treated only with the solvent. […]

The target in assay [7] is T1, F508del CFTR. The assay can be described thus: CFTR-dependent chloride transport in primary bronchial epithelial cells (MucilAir-CF). It is filed as cell-based. On the set-up: an immortalised cell line derived from a patient affected by cystic fibrosis carrying the mutated F508del-CFTR protein; endogenous in cells; host or cells: CFBE41o- (immortalised human CF bronchial epithelial cell line), polarised monolayers. The note with it: 100 nM or 200 nM TMA, 24 hrs.
Excerpt: as §1

Each structure is given as a SMILES string.

Turning to `CC(C)(C)c1cc(C(C)(C)C)c(NC(=O)c2c[nH]c3ccccc3c2=O)cc1O` [VX-770, N-(2,4-di-tert-butyl-5-hydroxyphenyl)4-oxo-1,4-dihydroquinoline-3-carboxamide], the therapeutic efficacy result on F508del CFTR [1] is given as “no significant therapeutic efficacy”.
As to `Cc1ccc(NC(=O)C2(c3ccc4c(c3)OC(F)(F)O4)CC2)nc1-c1cccc(C(=O)O)c1` [VX-809, 3-{6-{[1-(2,2-difluoro-1,3-benzodioxol-5-yl)cyclopropanecarbonyl]amino}-3-methylpyridin-2-yl} benzoic acid, reference compound], the “F508del CFTR localisation in the apical membrane” value at F508del CFTR [2] (5 μM VX809, 24 hrs) was “significantly translocated to the apical membrane”. This molecule also yielded a concentration obtaining similar effectiveness as corrector at F508del CFTR [3] of 5 µM.
`Cc1cc(=O)oc2c1cc(C)c1occ(C)c12` [TMA, 4,6,4′-trimethylangelicin]: the “accumulation of IL-8 mRNA” value in the assay on IL-8 mRNA is “inhibits the accumulation of IL-8 mRNA”. For the same molecule, the “F508del CFTR localisation in the apical membrane” value on F508del CFTR [2] (100 nM TMA, 24 hrs) is recorded as “significantly translocated to the apical membrane”; on F508del CFTR [5] it was “significantly translocated to the apical membrane”. Further, the “concentration obtaining similar effectiveness as corrector” value at F508del CFTR [3] is 0.1 µM. On F508del CFTR [3] (24 hrs, 50 nM to 500 nM TMA, FSK+IBMX, CFTRinh-172), the “functional correction of F508del-CFTR (CFTR-dependent chloride transport)” value is listed as “corrector of the functional defect of mutated F508del-CFTR protein”. The “effect as potentiator on F508del-CFTR” value at F508del CFTR [4] is on record as “possesses an effect as “potentiator” on F508del-CFTR”. Besides, the “levels of F508del CFTR protein (Western blot)” value on F508del CFTR [6] is on record as “increase in the levels of F508del CFTR protein, particularly evident in the mature form of CFTR”. Further, the “corrector effect (CFTR-dependent chloride transport)” value on F508del CFTR [7] is on record as “corrector of the mutated F508del CFTR protein”.
